Test system: prokaryotic transcription-translation (E. coli S30 extract)
Test: In vitro assay for inhibition of prokaryotic transcription-translation (Promega E. coli S30 Extract System, pBESTluc luciferase readout)
Assay type: biochemical
Conditions: 2 uM compound, 2 h at 37° C., luciferase luminescence
Protocol: In vitro assay for inhibition of prokaryotic transcription-translation [as described in the following references: 1. Zubay, G. (1973) In vitro synthesis of protein in microbial systems. Annu. Rev. Genet. 7, 267.87. 2. Zubay, G. (1980) The isolation and properties of CAP, the catabolite gene activator. Meth. Enzymol. 65, 856.77]. Antibiotic and compound dilutions: stock solutions of compound to be assayed at 2 μM are 80 μM in 40% DMSO. Stock solutions of compounds to be assayed at 10 μM are 400 μM in 40% DMSO.
Assay setup and protocol for Promega E. coli S30 Extract System
The assay is performed as follows: pipet 3.5 μl of 286 ng/μl template DNA (pBESTluc™) into assay wells. Negative control wells receive sdH2O only. Transfer 0.5 μl of 40× compound stock solution to assay wells. Positive control wells (no compound) receive 0.5 μl 40% DMSO sdH2O. Pipet 16 μl of master mix into assay wells. Incubate plate for two hours at 37° C. Rapidly chill the assay plate on ice for five minutes to stop the reaction. Add an equal volume (20 μl) of room temperature Steady-Glo® Luciferase assay reagent to all assay wells. Incubate 20 minutes and read light emitted with luminometer. Results are reported as % inhibition a 2 μM or 10 μM.

Row | SMILES | % inh. @ 2 uM
1 | CNC(=O)C[C@@H]1NC(=O)c2csc(n2)-c2ccc(-c3nc(NC(=O)CC[C@H](CC(=O)O)C(=O)O)cs3)nc2-c2csc(n2)-c2csc(n2)[C@H]([C@@H](O)c2ccccc2)NC(=O)CNC(=O)c2nc(sc2COC)C(C(C)C)NC(=O)c2nc1sc2C (stereo partly drawn) [Compound 1] | 2 uM = 65.4%
2 | CNC(=O)C[C@@H]1NC(=O)c2csc(n2)-c2ccc(-c3nc(NC(=O)CC[C@@H](CC(=O)O)C(=O)O)cs3)nc2-c2csc(n2)-c2csc(n2)[C@H]([C@@H](O)c2ccccc2)NC(=O)CNC(=O)c2nc(sc2COC)C(C(C)C)NC(=O)c2nc1sc2C (stereo partly drawn) [Compound 2] | 2 uM = 72.8%
3 | CNC(=O)C[C@@H]1NC(=O)c2csc(n2)-c2ccc(-c3nc(N(CCCC(=O)O)C(=O)OCCCC(=O)O)cs3)nc2-c2csc(n2)-c2csc(n2)[C@H]([C@@H](O)c2ccccc2)NC(=O)CNC(=O)c2nc(sc2COC)C(C(C)C)NC(=O)c2nc1sc2C (stereo partly drawn) [Compound 3] | 2 uM = 67.8%
4 | CNC(=O)C[C@@H]1NC(=O)c2csc(n2)-c2ccc(-c3nc(N(CCCC(=O)O)C(=O)O[C@H]4CC[C@H](C(=O)O)CC4)cs3)nc2-c2csc(n2)-c2csc(n2)[C@H]([C@@H](O)c2ccccc2)NC(=O)CNC(=O)c2nc(sc2COC)C(C(C)C)NC(=O)c2nc1sc2C (stereo partly drawn) [Compound 4] | 2 uM = 85.3%
5 | CNC(=O)C[C@@H]1NC(=O)c2csc(n2)-c2ccc(-c3nc(N(CCCCCCC(=O)O)C(=O)O[C@H]4CC[C@H](C(=O)O)CC4)cs3)nc2-c2csc(n2)-c2csc(n2)[C@H]([C@@H](O)c2ccccc2)NC(=O)CNC(=O)c2nc(sc2COC)C(C(C)C)NC(=O)c2nc1sc2C (stereo partly drawn) [Compound 5] | 2 uM = 78.5%
6 | CNC(=O)C[C@@H]1NC(=O)c2csc(n2)-c2ccc(-c3nc(N(CCCCC(=O)O)C(=O)O[C@H]4CC[C@H](C(=O)O)CC4)cs3)nc2-c2csc(n2)-c2csc(n2)[C@H]([C@@H](O)c2ccccc2)NC(=O)CNC(=O)c2nc(sc2COC)C(C(C)C)NC(=O)c2nc1sc2C (stereo partly drawn) [Compound 6] | 2 uM = 86.8%
7 | CNC(=O)C[C@@H]1NC(=O)c2csc(n2)-c2ccc(-c3nc(N(CCCCCC(=O)O)C(=O)O[C@H]4CC[C@H](C(=O)O)CC4)cs3)nc2-c2csc(n2)-c2csc(n2)[C@H]([C@@H](O)c2ccccc2)NC(=O)CNC(=O)c2nc(sc2COC)C(C(C)C)NC(=O)c2nc1sc2C (stereo partly drawn) [Compound 7] | 2 uM = 86.0%
8 | CNC(=O)C[C@@H]1NC(=O)c2csc(n2)-c2ccc(-c3nc(N(CCCC(=O)O)C(=O)CCCCC(=O)O)cs3)nc2-c2csc(n2)-c2csc(n2)[C@H]([C@@H](O)c2ccccc2)NC(=O)CNC(=O)c2nc(sc2COC)C(C(C)C)NC(=O)c2nc1sc2C (stereo partly drawn) [Compound 8] | 2 uM = 59.7%
9 | CNC(=O)C[C@@H]1NC(=O)c2csc(n2)-c2ccc(-c3nc(N(CCCCC(=O)O)C(=O)O[C@H]4C[C@H](C(=O)O)C4)cs3)nc2-c2csc(n2)-c2csc(n2)[C@H]([C@@H](O)c2ccccc2)NC(=O)CNC(=O)c2nc(sc2COC)C(C(C)C)NC(=O)c2nc1sc2C (stereo partly drawn) [Compound 9] | 2 uM = 67.1%
10 | CNC(=O)C[C@@H]1NC(=O)c2csc(n2)-c2ccc(-c3nc(N(CCCCC(=O)O)C(=O)[C@H]4CC[C@H]4C(=O)O)cs3)nc2-c2csc(n2)-c2csc(n2)[C@H]([C@@H](O)c2ccccc2)NC(=O)CNC(=O)c2nc(sc2COC)C(C(C)C)NC(=O)c2nc1sc2C (stereo partly drawn) [Compound 10] | 2 uM = 2.0%
11 | CNC(=O)C[C@@H]1NC(=O)c2csc(n2)-c2ccc(-c3nc(NC(=O)N4C[C@H](CCC(=O)O)C[C@H](CCC(=O)O)C4)cs3)nc2-c2csc(n2)-c2csc(n2)[C@H]([C@@H](O)c2ccccc2)NC(=O)CNC(=O)c2nc(sc2COC)C(C(C)C)NC(=O)c2nc1sc2C (stereo partly drawn) [Compound 11] | 2 uM = 92.3%
12 | CNC(=O)C[C@@H]1NC(=O)c2csc(n2)-c2ccc(-c3nc(N(CCCC(=O)O)C(=O)CCCCCC(=O)O)cs3)nc2-c2csc(n2)-c2csc(n2)[C@H]([C@@H](O)c2ccccc2)NC(=O)CNC(=O)c2nc(sc2COC)C(C(C)C)NC(=O)c2nc1sc2C (stereo partly drawn) [Compound 12] | 2 uM = 82.4%
13 | CNC(=O)C[C@@H]1NC(=O)c2csc(n2)-c2ccc(-c3nc(N(CCCCC(=O)O)C(=O)OCc4ccc(C(=O)O)cn4)cs3)nc2-c2csc(n2)-c2csc(n2)[C@H]([C@@H](O)c2ccccc2)NC(=O)CNC(=O)c2nc(sc2COC)C(C(C)C)NC(=O)c2nc1sc2C (stereo partly drawn) [Compound 13] | 2 uM = 74.9%
14 | CNC(=O)C[C@@H]1NC(=O)c2csc(n2)-c2ccc(-c3nc(N(CCCC(=O)O)C(=O)c4ccc(C(=O)O)cn4)cs3)nc2-c2csc(n2)-c2csc(n2)[C@H]([C@@H](O)c2ccccc2)NC(=O)CNC(=O)c2nc(sc2COC)C(C(C)C)NC(=O)c2nc1sc2C (stereo partly drawn) [Compound 14] | 2 uM = 55.5%
15 | CNC(=O)C[C@@H]1NC(=O)c2csc(n2)-c2ccc(-c3nc(N(CCCC(=O)O)C(=O)C[C@H]4CC[C@H](C(=O)O)CC4)cs3)nc2-c2csc(n2)-c2csc(n2)[C@H]([C@@H](O)c2ccccc2)NC(=O)CNC(=O)c2nc(sc2COC)C(C(C)C)NC(=O)c2nc1sc2C (stereo partly drawn) [Compound 15] | 2 uM = 64.5%
16 | CNC(=O)C[C@@H]1NC(=O)c2csc(n2)-c2ccc(-c3nc(N(CCCCC(=O)O)C(=O)[C@H]4CC[C@H](C(=O)O)CC4)cs3)nc2-c2csc(n2)-c2csc(n2)[C@H]([C@@H](O)c2ccccc2)NC(=O)CNC(=O)c2nc(sc2COC)C(C(C)C)NC(=O)c2nc1sc2C (stereo partly drawn) [Compound 16] | 2 uM = 64.3%
17 | CNC(=O)C[C@@H]1NC(=O)c2csc(n2)-c2ccc(-c3nc(N(CCCCC(=O)O)C(=O)C[C@H]4CC[C@H](C(=O)O)CC4)cs3)nc2-c2csc(n2)-c2csc(n2)[C@H]([C@@H](O)c2ccccc2)NC(=O)CNC(=O)c2nc(sc2COC)C(C(C)C)NC(=O)c2nc1sc2C (stereo partly drawn) [Compound 17] | 2 uM = 63.9%
18 | CNC(=O)C[C@@H]1NC(=O)c2csc(n2)-c2ccc(-c3nc(N(CCCCC(=O)O)C(=O)N[C@H]4CC[C@H](C(=O)O)CC4)cs3)nc2-c2csc(n2)-c2csc(n2)[C@H]([C@@H](O)c2ccccc2)NC(=O)CNC(=O)c2nc(sc2COC)C(C(C)C)NC(=O)c2nc1sc2C (stereo partly drawn) [Compound 18] | 2 uM = 52.7%
19 | CNC(=O)C[C@@H]1NC(=O)c2csc(n2)-c2ccc(-c3nc(N(C/C=C/C(=O)O)C(=O)O[C@H]4CC[C@H](C(=O)O)CC4)cs3)nc2-c2csc(n2)-c2csc(n2)[C@H]([C@@H](O)c2ccccc2)NC(=O)CNC(=O)c2nc(sc2COC)C(C(C)C)NC(=O)c2nc1sc2C (stereo partly drawn) [Compound 19] | 2 uM = 76.4%
20 | CNC(=O)C[C@@H]1NC(=O)c2csc(n2)-c2ccc(-c3nc(N(CC(CC(=O)O)OC)C(=O)O[C@H]4CC[C@H](C(=O)O)CC4)cs3)nc2-c2csc(n2)-c2csc(n2)[C@H]([C@@H](O)c2ccccc2)NC(=O)CNC(=O)c2nc(sc2COC)C(C(C)C)NC(=O)c2nc1sc2C (stereo partly drawn) [Compound 20] | 2 uM = 80.6%
21 | CNC(=O)C[C@@H]1NC(=O)c2csc(n2)-c2ccc(-c3nc(N(CCCCC(=O)O)C(=O)N4CCC(C(=O)O)CC4)cs3)nc2-c2csc(n2)-c2csc(n2)[C@H]([C@@H](O)c2ccccc2)NC(=O)CNC(=O)c2nc(sc2COC)C(C(C)C)NC(=O)c2nc1sc2C (stereo partly drawn) [Compound 21] | 2 uM = 37.4%
22 | CNC(=O)C[C@@H]1NC(=O)c2csc(n2)-c2ccc(-c3nc(NC(=O)N(CCCC(=O)O)CCCC(=O)O)cs3)nc2-c2csc(n2)-c2csc(n2)[C@H]([C@@H](O)c2ccccc2)NC(=O)CNC(=O)c2nc(sc2COC)C(C(C)C)NC(=O)c2nc1sc2C (stereo partly drawn) [Compound 22] | 2 uM = 79.8%
23 | CNC(=O)C[C@@H]1NC(=O)c2csc(n2)-c2ccc(-c3nc(NC(=O)N(CCCC(=O)O)[C@H]4CC[C@H](C(=O)O)CC4)cs3)nc2-c2csc(n2)-c2csc(n2)[C@H]([C@@H](O)c2ccccc2)NC(=O)CNC(=O)c2nc(sc2COC)C(C(C)C)NC(=O)c2nc1sc2C (stereo partly drawn) [Compound 23] | 2 uM = 79.8%
24 | CNC(=O)C[C@@H]1NC(=O)c2csc(n2)-c2ccc(-c3nc(N(CCOCC(=O)O)C(=O)O[C@H]4CC[C@H](C(=O)O)CC4)cs3)nc2-c2csc(n2)-c2csc(n2)[C@H]([C@@H](O)c2ccccc2)NC(=O)CNC(=O)c2nc(sc2COC)C(C(C)C)NC(=O)c2nc1sc2C (stereo partly drawn) [Compound 24] | 2 uM = 70.3%
25 | CNC(=O)C[C@@H]1NC(=O)c2csc(n2)-c2ccc(-c3nc(N(CCCCC(=O)O)C(=O)O[C@H]4CC[C@](CCCCC(=O)O)(C(=O)OC)CC4)cs3)nc2-c2csc(n2)-c2csc(n2)[C@H]([C@@H](O)c2ccccc2)NC(=O)CNC(=O)c2nc(sc2COC)C(C(C)C)NC(=O)c2nc1sc2C (stereo partly drawn) [Compound 25] | 2 uM = 83.7%
26 | CNC(=O)C[C@@H]1NC(=O)c2csc(n2)-c2ccc(-c3nc(N(CCCCC(=O)O)C(=O)OC(CCCCC(=O)O)CCC(=O)O)cs3)nc2-c2csc(n2)-c2csc(n2)[C@H]([C@@H](O)c2ccccc2)NC(=O)CNC(=O)c2nc(sc2COC)C(C(C)C)NC(=O)c2nc1sc2C (stereo partly drawn) [Compound 26] | 2 uM = 68.2%
27 | CNC(=O)C[C@@H]1NC(=O)c2csc(n2)-c2ccc(-c3nc(N(CCCCC(=O)O)C(=O)OCC4CC4C(=O)O)cs3)nc2-c2csc(n2)-c2csc(n2)[C@H]([C@@H](O)c2ccccc2)NC(=O)CNC(=O)c2nc(sc2COC)C(C(C)C)NC(=O)c2nc1sc2C (stereo partly drawn) [Compound 27] | 2 uM = 81.9%
